Patent publication US20180303141A1, “FLAVOR COMPOSITION FOR FOOD PRODUCTS” (NESTEC S.A., priority 2015, published 2018)

Experiments:
[1] = test system: panel of six experienced tasters; assay: Evaluation of the umami impression of the pea extract in different bouillon bases (scale 0-3); assay type: in vivo, human; settings: bouillon base containing sub-threshold MSG (60 mg/L), no pea extract; average of six tasters, 0=no umami, 3=strong umami
Description: It is clear from Example 3 that the umami impression cannot be explained solely by the MSG content. The MSG taste threshold is described in the literature as between 0.255 and 0.5 g MSG/L (1.5-3 mmol/L) (Behrens, M., et al. (2011) Sweet and Umami Taste: Natural Products, Their Chemosensory Targets, and Beyond; Angew. Chem. Int. Ed., 50, 2220-2242). Therefore the MSG content for the Pisum sativum extract is below the taste threshold. To confirm the umami taste of the pea extract, all MSG containing ingredients (MSG, ribonucleotides and yeast extract) were removed from a standard bouillon. Pea extract was added. […] The effect of the addition of a pea extract to a bouillon base (which has no intrinsic umami taste) is to provide a strong umami taste. It is clear that the pea extract alone promotes umami taste, and that this effect is even greater in the presence of MSG.
The pea extract used was obtained by a blanching water process containing the composition as described in table 1.
The results given are the average rating of a panel of six experienced tasters rating the umami intensity (0=no umami; 1=umami barely perceivable; 2=umami clearly perceivable; 3=strong umami).

[2] = test system: panel of 12 experienced tasters; assay: Comparison of the umami impression of a standard bouillon containing MSG and a bouillon with pea extract but no MSG (scale 0-10); assay type: in vivo, human; settings: standard bouillon containing MSG; average of 12 tasters, 0=no umami, 10=strong umami
Description: A standard bouillon containing no MSG but added pea extract was compared to the same standard bouillon containing MSG. A trained panel rated the bouillons on a scale from 0 (no umami) to 10 (strong umami). This gives evidence that the pea extract delivers a strong umami even it is less than to MSG itself, but the taste is received as being more natural and round mouthfeel instead of using MSG alone. […] The pea extract used was obtained by a blanching water process containing the composition as described in table 1. The results given are the average rating of a panel of 12 experienced tasters rating the umami intensity (0=no umami; 10=strong umami).

[3] = test system: sensory panel of 6 trained persons; assay: Sensory evaluation of pea extract dissolved in water, umami intensity on a 3-point scale versus a control sample; assay type: in vivo, human; settings: calculated for the example with pea extract containing 0.5% beta-R in water
Description: Different pea extract from Pisum sativum containing the composition as described in table 1 has been used to define the threshold concentrates in a sensory panel of 6 trained persons. The technical tasting was measured versus a control sample. Tasters were asked to judge the different products according to umami intensity on a 3-point scale.

[4] = test system: umami taste; assay: Fractionation of aqueous pea extract and analysis of the fractions with strong umami taste; settings: compound identified in pea extract
Description: The applicant prepared an aqueous extract of pea, preferably green pea and then subjected that extract to fractionation.
The compounds were isolated and characterized using two-dimensional preparative chromatography. For example, size exclusion chromatography in the first dimension, then hydrophilic interaction column (normal phase) in a second dimension. Identification of compounds was carried out using conventional analytical methods such as LC-MS or NMR.

Molecule	Umami Rating [1]	Umami Rating [2]	threshold concentrate [3] [ppm]	Contribution to umami taste (in words) [4]
N[C@@H](CCC(=O)O)C(=O)[O-].[Na+] [MSG, Monosodium glutamate]	0	5		
(5R)-(β-D-glucopyranosyloxy)-1,5-dihydro-2H-pyrrol-2-one [beta-R]			147	responsible to provide and enhance an umami taste
